{"source": "patent US10175228B2", "about": "“Method of using transmembrane channel-like protein 6 (TMC6) protein to identify substances affecting salty taste” (priority 2016, dated 2019)", "tested_on": "Pongo abelii TMC6 protein", "assay": "Calcium imaging of CHO-K1 cells expressing the Pongo abelii TMC6 gene", "assay_type": "cell-based", "conditions": "stimulation with high-concentration NaCl solution for 60 sec, 31 cells", "excerpt": "CHO-K1 cells were transfected with Macaca mulatta TMC6-2A-YC260TM in pcDNA3.1(−), Pongo abelii TMC6-2A-YC260TM in pcDNA3.1(−), Mouse-Aotus nancymaae chimera TMC6 2A-YC260TM in pcDNA3.1(−), or YC2.60-pcDNA, to prepare TMC6-expressing cells (cells expressing the Macaca mulatta TMC6 gene, the Pongo abelii TMC6 gene, or the mouse/Aotus nancymaae chimeric TMC6 gene, in combination with the YC2.60 gene) and control cells (cells expressing the YC2.60 gene). The prepared cells were stimulated, and activation of the cells was measured. The procedure was as follows.\nFirst, a plurality of sterile cover glasses (18×32 mm, Matsunami Glass) were placed at the bottom of a culture dish having a diameter of 100 mm so as not to be overlapped to each other. CHO-K1 cells (ATCC) were inoculated thereto while adjusting the number of the cells to obtain 60% confluence, and cultured for 24 hr. Then, medium exchange was carried out. As the medium, 12 mL of Ham's F-12K (Kaighn's) (Life Technologies) containing 10% fetal bovine serum (Life Technologies) was used. […]\nChange of the intracellular calcium concentration was measured and analyzed with analysis software equipped with FV1200. An average YFP/CFP value of all the cell of which the YFP/CFP value was changed by stimulation with the ATP stimulation solution was calculated at each measurement. […]", "data": [{"smiles": "[Cl-].[Na+]", "note": "[NaCl, sodium chloride]", "values": [{"measurement": "change of average YFP/CFP value (intracellular calcium concentration)", "result": "increase"}]}]}
